Experimental data as given in US20090156496A1, “METHODS AND COMPOSITIONS FOR TREATING AND PREVENTING PERIPHERAL NERVE DAMAGE” (CHILDREN'S MEDICAL CENTER CORPORATION, INC., priority 2006, published 2009).
Entries after “also recorded” stand apart in the source; their conditions may differ. Numbered stars: 1 amine (or outer) side, 2 acyl side, 3 side chain; on linkers, the order of the positions; unused ones are H or OH. Bridge positions count the residues as written; N and C are the ends. Square brackets hold non-standard residues; d marks the D form. Peptide text beside a SMILES is read from it. I, II: the chains in the order shown. Actinocin(9to1) = Cc1c2oc3c(C)ccc(C(=O)[*:1])c3nc-2c(C(=O)[*:2])c(N)c1=O; NMeV = CN[C@H](C(=O)O)C(C)C; Sar = CNCC(=O)O

Legend:
RGCs [1] = experiment: axon outgrowth in primary adult retinal cultures; type: cell-based, rat; settings: for effect of inhibitor on oncomodulin-induced axon outgrowth: PD98059 5 μM, LY 294002 20 μM, Jaki 20 nM, KN92 10 μM, ActD 8 nM
Experimental: Protein A beads (Sigma) were incubated with either rabbit anti-OM antiserum (Swant) or normal rabbit serum (Invitrogen) for 16 h at 4° C. After extensive rinsing, beads with adsorbed IgGs were mixed with MCM (1 ml 10× concentrate, collected 8 h after zymosan treatment) for 24 h at 4° C. and then pelleted down by centrifugation. We tested 5 μl of the supernatants or untreated MCM for oncomodulin by western blotting. Bioactivity of immune-depleted and control MCM was tested in dissociated RGC cultures as described below at a 1:4 dilution, a concentration found to give a near-maximal response.
(§1) Adult rat retinal cultures were prepared as described^21. […] One week later, retinas were dissected, dissociated, and the cells plated in defined, serum-free medium. Axon growth (% RGCs extending axons ≧30 μm, ≧70 μm or ≧140 μm in length) was evaluated after 3 d in quadruplicate samples in a blinded fashion. All experiments were repeated at least three separate times. In some instances, cells were immunostained with GAP-43 antibody (1:500, Chemicon).

RGCs [2] = experiment: RGC survival in primary retinal cultures; type: cell-based, rat
Experimental: as §1

DRG neurons = experiment: neurite outgrowth of DRG neurons cultured after intraganglionic injection in vivo; type: cell-based, rat; settings: CSPG substrate
Experimental: L4-L5 DRGs from adult male Sprague-Dawley rats (250-300 g) were injected with 5 μl of saline or oncomodulin (200 ng μl^−1). After 7 d, injected ganglia were dissected and single-cell suspensions were prepared as described^50. Cells were cultured on laminin (Sigma) with or without CSPGs (Chemicon) for 20 h or 40 h. In some cases, chondroitinase ABC (0.5 U ml^−1, Seikagaku) was added. Neurite outgrowth was visualized by Tuj1 antibody to class III β-tubulin (1:5,000, Babco) and quantified in quadruplicate samples by a blinded observer. In other studies, L4-L5 DRG neurons were cultured in the presence of absence of oncomodulin, mannose and/or forskolin in RPMI-1640 to limit spontaneous outgrowth. Cells were fixed and immunostained after 3 d and evaluated for outgrowth.

mature RGCs = settings: previously reported; cited from earlier work

Compound | effect of inhibitor on oncomodulin-induced axon outgrowth (RGCs [1]; KN93 10 μM) | axon extension of mature RGCs in culture (mature RGCs) | further results
CC(C)(C)c1nc2c3cc[nH]c(=O)c3c3cc(F)ccc3c2[nH]1 [Jaki, reference compound] | did not diminish oncomodulin's activity | – | –
COc1ccc(S(=O)(=O)Nc2ccccc2CN(C)C/C=C/c2ccc(Cl)cc2)cc1 [KN92, reference compound] | did not substantially diminish outgrowth | – | –
COc1ccc(S(=O)(=O)N(CCO)c2ccccc2CN(C)C/C=C/c2ccc(Cl)cc2)cc1 [KN93, reference compound] | blocked the effect of oncomodulin fully | – | effect of inhibitor on outgrowth induced by forskolin plus mannose (RGCs [1]; KN93 10 μM, three inhibitors combined): without altering the effect of mannose and forskolin
COc1cccc(-c2cc(=O)c3ccccc3o2)c1N [PD98059, reference compound] | not blocked; also recorded: enhanced outgrowth slightly | – | –
Cc1c2oc3c(C)ccc(C(=O)N[C@@H]4C(=O)N[C@H](C(C)C)C(=O)N5CCC[C@H]5C(=O)N(C)CC(=O)N(C)[C@@H](C(C)C)C(=O)O[C@@H]4C)c3nc-2c(C(=O)N[C@@H]2C(=O)N[C@H](C(C)C)C(=O)N3CCC[C@H]3C(=O)N(C)CC(=O)N(C)[C@@H](C(C)C)C(=O)O[C@@H]2C)c(N)c1=O [actinomycin D, reference compound] (I: T[dV]P[Sar][NMeV] / II: T[dV]P[Sar][NMeV]; ester I:1-I:C, II:1-II:C; linker I:N-II:N via Actinocin(9to1)) | blocked the effects of oncomodulin on outgrowth | – | RGC survival (RGCs [2]; retinal culture): without altering RGC survival
CCCC(=O)Nc1ncnc2c1ncn2[C@@H]1O[C@@H]2COP(=O)(O)O[C@H]2[C@H]1OC(=O)CCC [dibutyryl cAMP, reference compound] | – | – | effect on oncomodulin-induced outgrowth (RGCs [1]; [dB-cAMP] above 250 μM): further increases diminished outgrowth; effect on oncomodulin-induced outgrowth (RGCs [1]; [dB-cAMP] up to 250 μM): enhanced the effect of oncomodulin
Lysozyme | – | – | axon outgrowth from RGCs (RGCs [1]; data not shown): did not enhance outgrowth; diminished RGC survival (RGCs [2]; data not shown): ~25%
calmodulin | – | – | axon outgrowth bioassay, Ca2+-binding proteins (RGCs [1]; 15 nM or tenfold higher concentration, forskolin and mannose present): inactive
chondroitinase ABC | – | – | DRG neurite outgrowth on nonpermissive substrate (DRG neurons): promoted some outgrowth
epidermal growth factor | – | do not stimulate mature RGCs to extend axons | –
fibroblast growth factor-2 | – | do not stimulate mature RGCs to extend axons | –
interleukin-6 | – | do not stimulate mature RGCs to extend axons | –
nerve growth factor | – | do not stimulate mature RGCs to extend axons | –
